The text below walks through data of US12433952B2, “Antibody-drug conjugates targeting folate receptor alpha and methods of use” (ZYMEWORKS BC INC., priority 2022, dated 2025).

What all share (test): In vitro cytotoxicity of camptothecin analogues (CellTiter-Glo)
Common to all, as to format: cell-based
A general note: Cellular ATP, detected with luciferase, serves as a proxy for viable cell number.

One experiment concerns SK-BR-3 (breast cancer). The note with it: Homo sapiens, SK-BR-3, 96 h, read-out: pIC50 SKBR-3 (converted). The protocol: (§1) Cytotoxicity of the camptothecin analogues was assessed in vitro as follows.
(§2) In vitro potency was assessed on multiple cancer cell lines: SK-BR-3 (breast cancer), SKOV-3 (ovarian cancer), Calu-3 (lung cancer), ZR-75-1 (breast cancer) and MDA-MB-468 (breast cancer). Serial dilutions of camptothecin analogues were prepared in RPMI 1640+10% FBS, and 20 μL of each dilution was added to 384-well plates. Cells cultured in log-phase growth were detached by brief incubation in 0.05% Trypsin and resuspended in respective culturing media at 20,000 cells/mL (with the exception of ZR-75 cells, which were resuspended at 10,000 cells/mL). 50 μL of cell suspension was then added to the plates containing test articles. Cells were incubated with test articles for 4 d at 37° C. (with the exception of ZR-75 cells, which were incubated for 5 d). Growth inhibition was assessed by CellTiter-Glo® (Promega Corporation, Madison, WI) and luminescence was measured on a plate reader. IC50 values were determined by GraphPad Prism (GraphPad Software, San Diego CA).

Experiment [1] has as its system MDA-MB-468 (breast cancer). The note with it: Homo sapiens, MDA-MB-468, 96 h, read-out: pIC50 MDA-MB-468 (converted). The protocol: as §1, §2
A further experiment deals with Calu-3 (lung cancer). The settings on record: Homo sapiens, Calu-3, 96 h, read-out: pIC50 Calu-3 (converted). The protocol:
as §1, §2

The test system of a further experiment is ZR-75-1 (breast cancer). The note with it: Homo sapiens, ZR-75-1, 120 h, read-out: pIC50 ZR-75 (converted). On the procedure:
as §1, §2

The subject of another experiment is SKOV-3 (ovarian cancer). The note with it: Homo sapiens, SK-OV-3, 96 h, read-out: pIC50 SKOV-3 (converted). The protocol:
as §1, §2

Each structure is given as a SMILES string. Where two headings read alike, the source gives them in different places.

For the molecule `CC[C@@]1(O)C(=O)OCc2c1cc1n(c2=O)Cc2c-1nc1cc(F)c(OC)cc1c2CN1CCN(C)CC1` [Compound 107, (S)-4-ethyl-8-fluoro-4-hydroxy-9-methoxy-11-((4-methylpiperazin-1-yl)methyl)-1,12-dihydro-14H-pyrano[3′,4′:6,7]indolizino[1,2-b]quinoline-3,14(4H)-dione], the IC50 in the experiment with SK-BR-3 (breast cancer) (4 d incubation) is 3.09 nM; in experiment [1] (4 d incubation), 3.89 nM; with Calu-3 (lung cancer) (4 d incubation) it was 4.07 nM; with ZR-75-1 (breast cancer) (5 d incubation), 2.75 nM.
For the molecule `CC[C@@]1(O)C(=O)OCc2c1cc1n(c2=O)Cc2c-1nc1cc(F)c(C)cc1c2CN1CCSCC1CO` (stereo partly drawn) [Compound 114, (4S)-4-ethyl-8-fluoro-4-hydroxy-11-((3-(hydroxymethyl)thiomorpholino)methyl)-9-methyl-1,12-dihydro-14H-pyrano[3′,4′:6,7]indolizino[1,2-b]quinoline-3,14(4H)-dione], the IC50 in the experiment with SK-BR-3 (breast cancer) was 0.107 nM; with SKOV-3 (ovarian cancer) it was 0.178 nM; in experiment [1], 0.417 nM; in the experiment with Calu-3 (lung cancer) it was 0.0933 nM.
Consider `CC[C@@]1(O)C(=O)OCc2c1cc1n(c2=O)Cc2c-1nc1cc(F)c(C)cc1c2CN1CC2CC1(CO)CO2` (stereo partly drawn) [Compound 115, (4S)-4-ethyl-8-fluoro-4-hydroxy-11-((4-(hydroxymethyl)-2-oxa-5-azabicyclo[2.2.1]heptan-5-yl)methyl)-9-methyl-1,12-dihydro-14H-pyrano[3′,4′:6,7]indolizino[1,2-b]quinoline-3,14(4H)-dione], for which the IC50 in the experiment with SK-BR-3 (breast cancer) (4 d incubation) is 2.57 nM; in the experiment on SKOV-3 (ovarian cancer) (4 d incubation), 3.8 nM; in experiment [1] (4 d incubation), 4.17 nM; with Calu-3 (lung cancer) (4 d incubation), 1.29 nM.
`CC[C@@]1(O)C(=O)OCc2c1cc1n(c2=O)Cc2c-1nc1cc(F)c(C)cc1c2CN1CCS(=O)(=O)CC1CO` (stereo partly drawn) [Compound 116, (4S)-4-ethyl-8-fluoro-4-hydroxy-11-((3-(hydroxymethyl)-1,1-dioxidothiomorpholino)methyl)-9-methyl-1,12-dihydro-14H-pyrano[3′,4′:6,7]indolizino[1,2-b]quinoline-3,14(4H)-dione]: the IC50 is 7.08 nM with SK-BR-3 (breast cancer) (4 d incubation), 12.6 nM in the experiment on SKOV-3 (ovarian cancer) (4 d incubation), 9.33 nM in experiment [1] (4 d incubation) and 0.794 nM with Calu-3 (lung cancer) (4 d incubation).
With `CC[C@@]1(O)C(=O)OCc2c1cc1n(c2=O)Cc2c-1nc1cc(F)c(C)cc1c2CN1CC2CC(C1)C2O` (stereo partly drawn) [Compound 117, (4S)-4-ethyl-8-fluoro-4-hydroxy-11-((6-hydroxy-3-azabicyclo[3.1.1]heptan-3-yl)methyl)-9-methyl-1,12-dihydro-14H-pyrano[3′,4′:6,7]indolizino[1,2-b]quinoline-3,14(4H)-dione], the IC50 was 0.0955 nM in the experiment with SK-BR-3 (breast cancer) (4 d incubation), 0.17 nM in the experiment with SKOV-3 (ovarian cancer) (4 d incubation), 0.468 nM in experiment [1] (4 d incubation) and 0.162 nM in the experiment on Calu-3 (lung cancer) (4 d incubation).
The like results for `CC[C@@]1(O)C(=O)OCc2c1cc1n(c2=O)Cc2c-1nc1cc(F)c(C)cc1c2CN1CC(F)(CO)C1` [Compound 118, (S)-4-ethyl-8-fluoro-11-((3-fluoro-3-(hydroxymethyl)azetidin-1-yl)methyl)-4-hydroxy-9-methyl-1,12-dihydro-14H-pyrano[3′,4′:6,7]indolizino[1,2-b]quinoline-3,14(4H)-dione] were, in that order, 1.51 nM, 1.45 nM, 1.86 nM and 0.933 nM.
On to `CC[C@@]1(O)C(=O)OCc2c1cc1n(c2=O)Cc2c-1nc1cc(F)c(C)cc1c2CN1CC(CO)C1` [Compound 119, (S)-4-ethyl-8-fluoro-4-hydroxy-11-((3-(hydroxymethyl)azetidin-1-yl)methyl)-9-methyl-1,12-dihydro-14H-pyrano[3′,4′:6,7]indolizino[1,2-b]quinoline-3,14(4H)-dione], for which the IC50 is 4.17 nM in the experiment with SK-BR-3 (breast cancer) (4 d incubation), 3.72 nM in the experiment with SKOV-3 (ovarian cancer) (4 d incubation), 2.75 nM in experiment [1] (4 d incubation) and 1.17 nM in the experiment on Calu-3 (lung cancer) (4 d incubation).
In the case of `CC[C@@]1(O)C(=O)OCc2c1cc1n(c2=O)Cc2c-1nc1cc(F)c(C)cc1c2CN1CCC(F)(F)C(CO)C1` (stereo partly drawn) [Compound 120, (4S)-11-((4,4-difluoro-3-(hydroxymethyl)piperidin-1-yl)methyl)-4-ethyl-8-fluoro-4-hydroxy-9-methyl-1,12-dihydro-14H-pyrano[3′,4′:6,7]indolizino[1,2-b]quinoline-3,14(4H)-dione], the IC50 in the experiment with SK-BR-3 (breast cancer) (4 d incubation) is 1.1 nM; in the experiment with SKOV-3 (ovarian cancer) (4 d incubation), 0.251 nM; in experiment [1] (4 d incubation) it was 0.191 nM; in the experiment with Calu-3 (lung cancer) (4 d incubation), 0.1 nM.
`CC[C@@]1(O)C(=O)OCc2c1cc1n(c2=O)Cc2c-1nc1cc(F)c(C)cc1c2CN1C2CCC1(CO)CC2` [Compound 121, (S)-4-ethyl-8-fluoro-4-hydroxy-11-((1-(hydroxymethyl)-7-azabicyclo[2.2.1]heptan-7-yl)methyl)-9-methyl-1,12-dihydro-14H-pyrano[3′,4′:6,7]indolizino[1,2-b]quinoline-3,14(4H)-dione]: the IC50 in the experiment on SK-BR-3 (breast cancer) was 0.148 nM; in the experiment with SKOV-3 (ovarian cancer) it was 0.195 nM; in experiment [1], 0.269 nM; with Calu-3 (lung cancer), 0.145 nM.
For `CC[C@@]1(O)C(=O)OCc2c1cc1n(c2=O)Cc2c-1nc1cc(F)c(OC)cc1c2CNS(=O)(=O)CCO` [Compound 130, (S)—N-((4-ethyl-8-fluoro-4-hydroxy-9-methoxy-3,14-dioxo-3,4,12,14-tetrahydro-1H-pyrano[3′,4′:6,7]indolizino[1,2-b]quinolin-11-yl)methyl)-2-hydroxyethane-1-sulfonamide], the IC50 in the experiment on SK-BR-3 (breast cancer) (4 d incubation) was 14.8 nM; with SKOV-3 (ovarian cancer) (4 d incubation) it was 24 nM; in experiment [1] (4 d incubation), 6.46 nM; in the experiment on Calu-3 (lung cancer) (4 d incubation), 1.66 nM.
Consider `CC[C@@]1(O)C(=O)OCc2c1cc1n(c2=O)Cc2c-1nc1cc(F)c(OC)cc1c2CNC(=O)NCc1ccc(N)cc1` [Compound 135, (S)-1-(4-aminobenzyl)-3-((4-ethyl-8-fluoro-4-hydroxy-9-methoxy-3,14-dioxo-3,4,12,14-tetrahydro-1H-pyrano[3′,4′:6,7]indolizino[1,2-b]quinolin-11-yl)methyl)urea], for which the IC50 with SK-BR-3 (breast cancer) was 12.3 nM; in experiment [1], 10.7 nM; in the experiment with ZR-75-1 (breast cancer) it was 13.2 nM.
`CC[C@@]1(O)C(=O)OCc2c1cc1n(c2=O)Cc2c-1nc1cc(F)c(N)cc1c2CNC(C)=O` [Compound 147, (S)—N-((9-amino-4-ethyl-8-fluoro-4-hydroxy-3,14-dioxo-3,4,12,14-tetrahydro-1H-pyrano[3′,4′:6,7]indolizino[1,2-b]quinolin-11-yl)methyl)acetamide]: the IC50 is 5.13 nM in the experiment on SK-BR-3 (breast cancer) (4 d incubation), 43.7 nM in the experiment on SKOV-3 (ovarian cancer) (4 d incubation), 21.4 nM in experiment [1] (4 d incubation) and 21.4 nM in the experiment with Calu-3 (lung cancer) (4 d incubation).
With `CC[C@@]1(O)C(=O)OCc2c1cc1n(c2=O)Cc2c-1nc1cc(F)c(N)cc1c2CN=[N+]=[N-]` [Compound 152, (S)-9-amino-11-(azidomethyl)-4-ethyl-8-fluoro-4-hydroxy-1,12-dihydro-14H-pyrano[3′,4′:6,7]indolizino[1,2-b]quinoline-3,14(4H)-dione], the IC50 is 3.24 nM in the experiment with SK-BR-3 (breast cancer), 2.88 nM with SKOV-3 (ovarian cancer), 5.01 nM in experiment [1] and 1.48 nM in the experiment with Calu-3 (lung cancer).
For the molecule `CC[C@@]1(O)C(=O)OCc2c1cc1n(c2=O)Cc2c-1nc1cc(F)c(N)cc1c2CN1CCN(S(=O)(=O)c2ccccc2)CC1` [Compound 153, (S)-9-amino-4-ethyl-8-fluoro-4-hydroxy-11-((4-(phenylsulfonyl)piperazin-1-yl)methyl)-1,12-dihydro-14H-pyrano[3′,4′:6,7]indolizino[1,2-b]quinoline-3,14(4H)-dione], the IC50 is 0.513 nM in the experiment on SK-BR-3 (breast cancer) (4 d incubation), 0.933 nM with SKOV-3 (ovarian cancer) (4 d incubation) and 0.115 nM in the experiment with Calu-3 (lung cancer) (4 d incubation).
